# Source: patent publication US20250282768A1 (Janssen Pharmaceutica NV, priority 2022, published 2025)
# Test system: p-IKKa levels in L363 (NIK translocated multiple myeloma) cells
# Assay: Assay 2: Effect of compounds on p-IKKa levels in L363 (NIK translocated multiple myeloma) cells
# Format: cell-based
# Conditions: Homo sapiens, L-363, 6 h, read-out: Assay 2 IC50 (nM), p-IKKa (Ser 176/180) in BAFF stimulated L363 cells with MG132, 6 h; average if tested more than once
# In short: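 Read-out is p-IKKa Ser176/180 by AlphaLISA SureFire in lysates. Cells were BAFF-primed (250 ng/ml) overnight or left unstimulated, then exposed 6 h at 37 °C to compound with MG132 (10 μM), 0.3% DMSO. IC50 from sigmoidal curve fit, normalized between stimulated and unstimulated controls.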
row,SMILES,IC50 [nM]
1,"[2H]C1([2H])N(C)C(=O)[C@](O)(c2cc(-c3cccc(-c4ccnc(Nc5ccn(C)n5)n4)n3)no2)C1([2H])[2H] [Example 8, (R)-3-Hydroxy-1-methyl-3-(3-(6-(2-((1-methyl-1H-pyrazol-3-yl)amino)pyrimidin-4-yl)pyridin-2-yl)isoxazol-5-yl)pyrrolidin-2-one-4,4,5,5-d4]",< 50
2,"COc1nn(C(CO)CO)cc1Nc1nccc(-c2cccc(-c3cc([C@]4(O)CCN(C)C4=O)on3)n2)n1 [Example 9, (R)-3-(3-(6-(2-((1-(1,3-Dihydroxypropan-2-yl)-3-methoxy-1H-pyrazol-4-yl)amino)pyrimidin-4-yl)pyridin-2-yl)isoxazol-5-yl)-3-hydroxy-1-methylpyrrolidin-2-one]",50 to 500
3,"CN1CCC(n2cc(Nc3nccc(-c4cccc(-c5cc([C@@]6(O)C(=O)N(C)CC6(F)F)on5)n4)n3)cn2)CC1 [Example 10, (R)-4,4-Difluoro-3-hydroxy-1-methyl-3-(3-(6-(2-((1-(1-methylpiperidin-4-yl)-1H-pyrazol-4-yl)amino)pyrimidin-4-yl)pyridin-2-yl)isoxazol-5-yl)pyrrolidin-2-one]",50 to 500
4,"CN1CC[C@@](O)(c2cc(-c3cccc(-c4ccnc(N[C@H]5CCOC5)n4)c3)no2)C1=O [Example 11, (R)-3-Hydroxy-1-methyl-3-(3-(3-(2-(((S)-tetrahydrofuran-3-yl)amino)pyrimidin-4-yl)phenyl)isoxazol-5-yl)pyrrolidin-2-one]",> 500
5,"CN1CC[C@@](O)(c2cc(-c3cccc(-c4ccnc(N[C@@H]5CCOC5)n4)c3)no2)C1=O [Example 12, (R)-3-Hydroxy-1-methyl-3-(3-(3-(2-(((R)-tetrahydrofuran-3-yl)amino)pyrimidin-4-yl)phenyl)isoxazol-5-yl)pyrrolidin-2-one]",> 500
6,"CN1CC[C@@](O)(c2cc(-c3cccc(-c4ccnc(N[C@H]5CC[C@H](O)C5)n4)c3)no2)C1=O [Example 13, (R)-3-Hydroxy-3-(3-(3-(2-(((1 S,3S)-3-hydroxycyclopentyl)amino)pyrimidin-4-yl)phenyl)isoxazol-5-yl)-1-methylpyrrolidin-2-one]",> 500
7,"CN1CC[C@@](O)(c2cc(-c3cccc(-c4ccnc(N[C@H]5CC[C@@H](O)C5)n4)c3)no2)C1=O [Example 14, (R)-3-Hydroxy-3-(3-(3-(2-(((1 S,3R)-3-hydroxycyclopentyl)amino)pyrimidin-4-yl)phenyl)isoxazol-5-yl)-1-methylpyrrolidin-2-one]",> 500
8,"CN1CC[C@@](O)(c2cc(-c3cccc(-c4ccnc(Nc5cnn6c5OCCC6)n4)c3)no2)C1=O [Example 15, (R)-3-(3-(3-(2-((6,7-Dihydro-5H-pyrazolo[5,1-b][1,3]oxazin-3-yl)amino)pyrimidin-4-yl)phenyl)isoxazol-5-yl)-3-hydroxy-1-methylpyrrolidin-2-one]",> 500
9,"COc1cn(C)nc1Nc1nccc(-c2cccc(-c3cc([C@]4(O)CCN(C)C4=O)on3)c2)n1 [Example 16, (R)-3-Hydroxy-3-(3-(3-(2-((4-methoxy-1-methyl-1H-pyrazol-3-yl)amino)pyrimidin-4-yl)phenyl)isoxazol-5-yl)-1-methylpyrrolidin-2-one]",> 500
10,"COc1nn(C)cc1Nc1nccc(-c2cccc(-c3cc([C@]4(O)CCN(C)C4=O)on3)c2)n1 [Example 17, (R)-3-Hydroxy-3-(3-(3-(2-((3-methoxy-1-methyl-1H-pyrazol-4-yl)amino)pyrimidin-4-yl)phenyl)isoxazol-5-yl)-1-methylpyrrolidin-2-one]",50 to 500
11,"CN1CC[C@@](O)(c2cc(-c3cccc(-c4ccnc(Nc5cnn6cccnc56)n4)c3)no2)C1=O [Example 18, (R)-3-Hydroxy-1-methyl-3-(3-(3-(2-(pyrazolo[1,5-a]pyrimidin-3-ylamino)pyrimidin-4-yl)phenyl)isoxazol-5-yl)pyrrolidin-2-one]",> 500
12,"CN1CC[C@@](O)(c2cc(-c3cccc(-c4ccnc(N5CCCn6ncc(N)c65)n4)c3)no2)C1=O [Example 19, (R)-3-(3-(3-(2-(3-Amino-6,7-dihydropyrazolo[1,5-a]pyrimidin-4(5H)-)pyrimidin-4-yl)phenyl)isoxazol-5-yl)-3-hydroxy-1-methylpyrrolidin-2-one]",> 500
13,"CN1CC[C@@](O)(c2cc(-c3cccc(-c4ccnc(Nc5cnn6c5NCCC6)n4)c3)no2)C1=O [Example 20, (R)-3-Hydroxy-1-methyl-3-(3-(3-(2-((4,5,6,7-tetrahydropyrazolo[1,5-a]pyrimidin-3-yl)amino)pyrimidin-4-yl)phenyl)isoxazol-5-yl)pyrrolidin-2-one]",> 500
14,"CN1CC[C@@](O)(c2cc(-c3cccc(-c4ccnc(Nc5cnn(C)c5N)n4)c3)no2)C1=O [Example 21, (R)-3-(3-(3-(2-((5-Amino-1-methyl-1H-pyrazol-4-yl)amino)pyrimidin-4-yl)phenyl)isoxazol-5-yl)-3-hydroxy-1-methylpyrrolidin-2-one]",> 500
15,"CN1CC[C@@](O)(c2cc(-c3cccc(-c4ccnc(Nc5cc6n(n5)CCOC6)n4)c3)no2)C1=O [Example 22, (R)-3-(3-(3-(2-((6,7-Dihydro-4H-pyrazolo[5,1-c][1,4]oxazin-2-yl)amino)pyrimidin-4-yl)phenyl)isoxazol-5-yl)-3-hydroxy-1-methylpyrrolidin-2-one]",> 500
16,"CN1CCn2nc(Nc3nccc(-c4cccc(-c5cc([C@]6(O)CCN(C)C6=O)on5)c4)n3)cc2C1=O [Example 23, (R)-2-((4-(3-(5-(3-Hydroxy-1-methyl-2-oxopyrrolidin-3-yl)isoxazol-3-yl)phenyl)pyrimidin-2-yl)amino)-5-methyl-6,7-dihydropyrazolo[1,5-a]pyrazin-4(5H)-one]",50 to 500
17,"Cc1ncccc1Nc1nccc(-c2cccc(-c3cc([C@]4(O)CCN(C)C4=O)on3)c2)n1 [Example 24, (R)-3-Hydroxy-1-methyl-3-(3-(3-(2-((2-methylpyridin-3-yl)amino)pyrimidin-4-yl)phenyl)isoxazol-5-yl)pyrrolidin-2-one]",50 to 500
18,"CN1CC[C@@](O)(c2cc(-c3cccc(-c4ccnc(Nc5ccn(C)n5)n4)c3)no2)C1=O [Example 25, (R)-3-Hydroxy-1-methyl-3-(3-(3-(2-((1-methyl-1H-pyrazol-3-yl)amino)pyrimidin-4-yl)phenyl)isoxazol-5-yl)pyrrolidin-2-one]",50 to 500
19,"CN1CC[C@@](O)(c2cc(-c3cccc(-c4ccnc(Nc5ccnn5C)n4)n3)no2)C1=O [Example 26, (R)-3-Hydroxy-1-methyl-3-(3-(6-(2-((1-methyl-1H-pyrazol-5-yl)amino)pyrimidin-4-yl)pyridin-2-yl)isoxazol-5-yl)pyrrolidin-2-one]",< 50
20,"CN1CC(F)(F)[C@@](O)(c2cc(-c3cccc(-c4ccnc(Nc5ccn(C)n5)n4)n3)no2)C1=O [Example 27, (R)-4,4-Difluoro-3-hydroxy-1-methyl-3-(3-(6-(2-((1-methyl-1H-pyrazol-3-yl)amino)pyrimidin-4-yl)pyridin-2-yl)isoxazol-5-yl)pyrrolidin-2-one]",< 50
21,"CN1CC[C@@](O)(c2cc(-c3cccc(-c4ccnc(Nc5cn(CC(F)F)nc5OC5CC5)n4)n3)no2)C1=O [Example 28, (R)-3-(3-(6-(2-((3-Cyclopropoxy-1-(2,2-difluoroethyl)-1H-pyrazol-4-yl)amino)pyrimidin-4-yl)pyridin-2-yl)isoxazol-5-yl)-3-hydroxy-1-methylpyrrolidin-2-one]",< 50
22,"Cc1nn(C)cc1Nc1nccc(-c2cccc(-c3cc([C@]4(O)CCN(C)C4=O)on3)n2)n1 [Example 29, (R)-3-(3-(6-(2-((1,3-Dimethyl-1H-pyrazol-4-yl)amino)pyrimidin-4-yl)pyridin-2-yl)isoxazol-5-yl)-3-hydroxy-1-methylpyrrolidin-2-one]",< 50
23,"CN1CC[C@@](O)(c2cc(-c3cccc(-c4ccnc(Nc5cnn(C)c5)n4)n3)on2)C1=O [Example 30, (R)-3-Hydroxy-1-methyl-3-(5-(6-(2-((1-methyl-1H-pyrazol-4-yl)amino)pyrimidin-4-yl)pyridin-2-yl)isoxazol-3-yl)pyrrolidin-2-one]",< 50
24,"CN1CC[C@@](O)(c2cc(-c3cccc(-c4ccnc(-n5ccc(N)n5)n4)n3)no2)C1=O [Example 32, (R)-3-(3-(6-(2-(3-Amino-1H-pyrazol-1-yl)pyrimidin-4-yl)pyridin-2-yl)isoxazol-5-yl)-3-hydroxy-1-methylpyrrolidin-2-one]",> 500
25,"CN1CC[C@@](O)(c2cc(-c3cccc(-c4ccnc(Nc5c[nH]nc5C(F)(F)F)n4)n3)no2)C1=O [Example 33, (R)-3-Hydroxy-1-methyl-3-(3-(6-(2-((3-(trifluoromethyl)-1H-pyrazol-4-yl)amino)pyrimidin-4-yl)pyridin-2-yl)isoxazol-5-yl)pyrrolidin-2-one]",> 500
26,"Cc1cn[nH]c1Nc1nccc(-c2cccc(-c3cc([C@]4(O)CCN(C)C4=O)on3)n2)n1 [Example 34, (R)-3-Hydroxy-1-methyl-3-(3-(6-(2-((4-methyl-1H-pyrazol-5-yl)amino)pyrimidin-4-yl)pyridin-2-yl)isoxazol-5-yl)pyrrolidin-2-one]",50 to 500
27,"Cc1cnn(-c2nccc(-c3cccc(-c4cc([C@]5(O)CCN(C)C5=O)on4)n3)n2)c1N [Example 35, (R)-3-(3-(6-(2-(5-Amino-4-methyl-1H-pyrazol-1-yl)pyrimidin-4-yl)pyridin-2-yl)isoxazol-5-yl)-3-hydroxy-1-methylpyrrolidin-2-one]",> 500
28,"Cc1n[nH]cc1Nc1nccc(-c2cccc(-c3cc([C@]4(O)CCN(C)C4=O)on3)n2)n1 [Example 36, (R)-3-Hydroxy-1-methyl-3-(3-(6-(2-((3-methyl-1H-pyrazol-4-yl)amino)pyrimidin-4-yl)pyridin-2-yl)isoxazol-5-yl)pyrrolidin-2-one]",< 50
